We go through 2 substances from patent US11976092B2, “RNA nanostructures, methods of making, and uses thereof” (Ohio State Innovation Foundation, priority 2018, dated 2024).

Series [1] is described as follows: Apparent hydrodynamic diameter by DLS (Zetasizer nano-ZS). It is filed as physicochemical. To be noted: 25° C. An excerpt: The data was obtained from three independent measurements.
Series [2] deals with KB cells. In words: FITC Annexin V / PI apoptosis assay (FACS). It is filed as cell-based, Human. To be noted: 1 μM, 48 hr treatment. The method, then: FITC Annexin V Apoptosis Detection Kit (BD Pharmingen) and Caspase-3 Assay Kit (BD Pharmingen) were used as previously reported to study cell apoptosis induced by pRNA-3WJ-PTX micelle treatment. For FITC Annexin V staining assay, KB cells were seeded in 12-well plates overnight. […] The controls include Paclitaxel, pRNA-3WJ micelles, and pRNA-3WJ. According to manufacturer instructions, 48 hr after incubation with the RNA micelles, KB cells were trypsinized to single cell suspension. After two PBS washes, the cells were resuspended in 100 μL 1× Annexin V-FITC binding buffer. Then 5 μL AnnexinV-FITC and 5 μL propidium iodide (PI) were added into each sample and incubated at room temperature for 25 min. The samples were finally added to a flow tube which contained 200 μL 1× binding buffer for FACS analysis within 1 hr.

The nature of series [3]: FIG. 31B. An excerpt: Table printed on a drawing sheet, FIG. 31B
The patent's description of the figure: FIGS. 31A and 31B show enzymatic stability of branched 3WJs modular RNA motifs. FIG. 31A. Serum degradation curve. FIG. 31B. Half life of 3WJs in 50% serum.
FIGS. 29A to 31B show design (FIGS. 29A and 29B), thermal stability (qPCR & TGGE, FIGS. 30A to 30C), and enzymatic stability (serum stability assay, FIGS. 31A and 31B) of branched 3WJs with different core and helix.

For the substance “pRNA-3WJ: phi29 pRNA three-way junction scaffold of a3WJ, b3WJ, c3WJ (SEQ ID NO:16-18), without lipophilic and therapeutic modules (chain 1 UUGCCAUGUGUAUGUGGG; chain 2 CCCACAUACUUUGUUGAUCC; chain 3 GGAUCAAUCAUGGCAA; 2'-fluoro at CU, RNA at AG, backbone not given here)”, the average hydrodynamic diameter in series [1] came out at 7.466±1.215 nm. Further, in series [2], the cells undergoing apoptosis is 3.7%.

With “Phi29-Mod: 3WJ modular RNA motif, SEQ ID NOs:19-21 (chain 1 AUUCGCUGUGUGGUAGUG; chain 2 CACUACCACUUUGUCCUACG; chain 3 CGUAGGACCAGCGAAU; further chemistry not given here)”, the “t1/2” value in series [3] is reported as 24 h.
